Measurements from patent US20060167056A1, “Polymorphs of {5-[3-(4,6-Difluoro-1H-benzoimidazol-2-yl)-1H-indazol-5-yl)-4-methyl-pyridin-3-ylmethyl}-ethyl-amine” (AGOURON PHARMACEUTICALS, INC., priority 2004, published 2006).
Entries after “also recorded” stand apart in the source; their conditions may differ.

Tests used:
Format in all cases: physicochemical
[1] = Aqueous solubility
Description: (§1) The present invention provides several polymorphic crystalline forms of Compound 1. Each crystalline form of the compound can be characterized by one or more of the following: X-ray powder diffraction pattern (i.e., X-ray diffraction peaks at various diffraction angles (2θ)), melting point onset (and onset of dehydration for hydrated forms) as illustrated by endotherms of a differential scanning calorimetry (DSC) thermogram, Raman spectra, thermal gravimetric analysis (TGA), solid state ^13C and ^19F nuclear magnetic resonance (SSNMR) spectrum, aqueous solubility, light stability under International Conference on Harmonization (ICH) high intensity light conditions, and physical and chemical storage stability.
(§2) Polymorph Form B is physically and chemically stable at 40° C. at 75% relative humidity for at least six weeks.

[2] = Stability study at 40° C. at 75% relative humidity (X-ray powder diffraction and DSC, initial vs 6 weeks)
Description: as §1
(§3) Polymorph Form A is a meta-stable solvate form of Compound 1. Form A is chemically stable at 40° C. at 75% relative humidty for at least 6 weeks. […] The 6 week DSC thermogram, FIG. 2G, indicates an endotherm onset at 257° C. at a scan rate of 10° C./min.
as §2
FIG. 2A is an X-ray powder diffractogram of polymorph Form B of Compound 1. Form B was further characterized by Raman spectra, ^13C solid state NMR, ^19F solid state NMR, DSC profiling and TGA analysis.

[3] = DSC profiling, meta-stability of the polymorphic form; conditions: DSC thermogram
Description: Different polymorphic forms of Compound 1 were also distinguished using differential scanning calorimetry (DSC). DSC measures the difference in heat energy between a solid sample and an appropriate reference with an increase in temperature. DSC thermograms are characterized by endotherms (indicating energy uptake) and also by exotherms (indicating energy release), typically as the sample is heated. The DSC thermographs were obtained using a TA Instrument DSC Q-1000 instrument at a scan rate of 10° C./min over a temperature range of 25-300° C. Samples were weighed into aluminum crucibles that were sealed and punctured with a single hole. The extrapolated onset of melting temperature and, where applicable, the onset of dehydration/desolvation temperature, were also calculated. […] For any given example, the observed endotherms may also differ from instrument to instrument; however, it will generally be within the ranges defined herein provided the instruments are calibrated similarly.
as §3
FIG. 3A is an X-ray powder diffractogram of polymorph Form C of Compound 1. […]

CCNCc1cncc(-c2ccc3[nH]nc(-c4nc5c(F)cc(F)cc5[nH]4)c3c2)c1C [Form B, {5-[3-(4,6-Difluoro-1H-benzoimidazol-2-yl)-1H-indazol-5-yl]-4-methyl-pyridin-3-ylmethyl}-ethyl-amine]
solubility ([1]; aqueous, aqueous buffer, pH=4, read-out: initial aqueous solubility): > 20 mg/mL
behaviour of the aqueous solution after time ([1]; pH=4, after time): the solution has been seen to gel
chemically stable, duration [2]: at least six

CCNCc1cncc(-c2ccc3[nH]nc(-c4nc5c(F)cc(F)cc5[nH]4)c3c2)c1C [Form C, {5-[3-(4,6-Difluoro-1H-benzoimidazol-2-yl)-1H-indazol-5-yl]-4-methyl-pyridin-3-ylmethyl}-ethyl-amine]
stability class of the polymorphic form [3]: meta-stable

CCNCc1cncc(-c2ccc3[nH]nc(-c4nc5c(F)cc(F)cc5[nH]4)c3c2)c1C [Form A, {5-[3-(4,6-Difluoro-1H-benzoimidazol-2-yl)-1H-indazol-5-yl]-4-methyl-pyridin-3-ylmethyl}-ethyl-amine]
stability class of the polymorphic form [3]: meta-stable
chemically stable, duration [2]: at least 6 weeks
polymorph conversion, initial DSC thermogram vs 6 week DSC thermogram ([2]; 6 weeks, DSC scan rate 10° C./min): small conversion of Form A to Form B; also recorded: a small amount of Form A had been converted to Form B
physical stability, initial X-Ray powder diffraction data vs 6 week stability X-ray data ([2]; 6 weeks, XRPD): appears to be physically stable
